The text below walks through data of article PMC12073402, “A Selective MAP3K1 Inhibitor Facilitates Discovery of NPM1 as a Member of the Network” (Molecules, 2025).

Holding throughout (assay): KiNativ kinome profiling in PANC-1 lysate
Holding throughout (format): binding

In one test the target is T1, IKKa (Homo sapiens, UniProt O15111).
T1 construct: we opted to conduct a kinome screen (KiNativ) in PANC-1 cell lysates; endogenous in cells; host or cells: PANC-1 cell lysate
The settings on record: Lys2. A digest of the protocol:
(§1)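 PANC-1 lysates were incubated with 5 μM inhibitor or DMSO, then labeled with a desthiobiotin-ATP acyl-phosphate probe that biotinylates conserved kinase lysines. Tryptic peptides were streptavidin-enriched and quantified by LC-MS/MS, reported as % change in MS signal from duplicate treated and duplicate control samples.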

In the next test the test system is ABL, ARG. The following applies: 5 µM. A digest of the protocol: as §1
The next test deals with T2, CK1g3 (Homo sapiens, UniProt Q9Y6M4).
T2 construct: endogenous in cells; host or cells: PANC-1 cell lysate
The settings on record: Lys2. An outline of the steps:
as §1

The target of another test is T3, CDK5 (Homo sapiens, UniProt Q00535).
T3 construct: endogenous in cells; host or cells: PANC-1 cell lysate
A digest of the protocol:
as §1

In the next test the test system is Wnk1, Wnk2, Wnk3. The settings on record: 5 µM; Lys2; DLKCDNIFITGPTGSVK
An outline of the steps:
as §1

The target of a further test is T4, CaMK1d (Homo sapiens, UniProt Q8IU85).
T4 construct: endogenous in cells; host or cells: PANC-1 cell lysate
A digest of the protocol:
as §1

A further test has as its target T5, PKD3 (Homo sapiens, UniProt O94806).
T5 construct: endogenous in cells; host or cells: PANC-1 cell lysate
T5 sequence (O94806 1-890): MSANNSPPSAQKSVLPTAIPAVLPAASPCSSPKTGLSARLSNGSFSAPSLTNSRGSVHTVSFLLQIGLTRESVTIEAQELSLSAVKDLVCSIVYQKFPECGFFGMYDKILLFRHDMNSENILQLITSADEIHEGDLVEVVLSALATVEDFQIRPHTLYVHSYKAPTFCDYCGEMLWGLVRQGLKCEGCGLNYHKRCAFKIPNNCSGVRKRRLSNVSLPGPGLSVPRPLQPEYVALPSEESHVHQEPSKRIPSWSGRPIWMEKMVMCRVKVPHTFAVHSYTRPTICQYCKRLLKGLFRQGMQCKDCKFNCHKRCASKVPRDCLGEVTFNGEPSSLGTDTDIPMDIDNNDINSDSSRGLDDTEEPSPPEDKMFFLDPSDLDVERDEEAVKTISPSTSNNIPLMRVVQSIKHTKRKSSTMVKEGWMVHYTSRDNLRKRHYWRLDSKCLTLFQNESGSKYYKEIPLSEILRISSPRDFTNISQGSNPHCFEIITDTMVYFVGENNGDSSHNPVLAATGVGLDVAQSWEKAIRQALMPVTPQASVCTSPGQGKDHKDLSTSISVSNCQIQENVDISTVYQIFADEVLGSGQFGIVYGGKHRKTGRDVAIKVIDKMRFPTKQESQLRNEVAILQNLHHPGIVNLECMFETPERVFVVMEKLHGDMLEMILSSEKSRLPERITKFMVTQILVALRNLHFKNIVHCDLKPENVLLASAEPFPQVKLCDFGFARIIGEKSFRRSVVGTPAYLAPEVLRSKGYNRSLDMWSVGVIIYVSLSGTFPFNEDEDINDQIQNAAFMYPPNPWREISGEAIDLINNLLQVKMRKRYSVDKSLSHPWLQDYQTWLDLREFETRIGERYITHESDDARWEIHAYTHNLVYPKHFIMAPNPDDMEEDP
A digest of the protocol: as §1

Another test addresses T6, MSK1 domain1 (Homo sapiens, UniProt O75582).
T6 construct: endogenous in cells; host or cells: PANC-1
The settings on record: Lys2. A digest of the protocol: as §1

The next test has as its target T7, PFTAIRE2 (Homo sapiens, UniProt Q96Q40).
T7 construct: endogenous in cells; host or cells: PANC-1 cell lysate
The following applies: Lys2. An outline of the steps:
as §1

For another test, the target named is T8, CaMK2g (Homo sapiens, UniProt Q13555).
T8 construct: endogenous in cells; host or cells: PANC-1 cell lysate
The settings on record: Lys1. A digest of the protocol: as §1

The test system of another test is MER, TYRO3. The following applies: 5 µM; ATP Loop; KIYSGDYYR
An outline of the steps:
as §1

In another test the target is T9, EphB4 (Homo sapiens, UniProt P54760).
T9 construct: endogenous in cells; host or cells: PANC-1 lysate
The following applies: ATP Loop. An outline of the steps:
as §1

The target in the next test is T10, PKR (Homo sapiens, UniProt P19525).
T10 construct: endogenous in cells; host or cells: PANC-1 cell lysate
A digest of the protocol: as §1

Another test deals with T11, IRAK4 (Homo sapiens, UniProt Q9NWZ3).
T11 construct: we opted to conduct a kinome screen (KiNativ) in PANC-1 cell lysates; endogenous in cells; host or cells: PANC-1 cell lysate
A digest of the protocol: as §1

The next test has as its system ROCK1, ROCK2. The settings on record: 5 µM. A digest of the protocol:
as §1

T10 sequence (P19525 whole entry): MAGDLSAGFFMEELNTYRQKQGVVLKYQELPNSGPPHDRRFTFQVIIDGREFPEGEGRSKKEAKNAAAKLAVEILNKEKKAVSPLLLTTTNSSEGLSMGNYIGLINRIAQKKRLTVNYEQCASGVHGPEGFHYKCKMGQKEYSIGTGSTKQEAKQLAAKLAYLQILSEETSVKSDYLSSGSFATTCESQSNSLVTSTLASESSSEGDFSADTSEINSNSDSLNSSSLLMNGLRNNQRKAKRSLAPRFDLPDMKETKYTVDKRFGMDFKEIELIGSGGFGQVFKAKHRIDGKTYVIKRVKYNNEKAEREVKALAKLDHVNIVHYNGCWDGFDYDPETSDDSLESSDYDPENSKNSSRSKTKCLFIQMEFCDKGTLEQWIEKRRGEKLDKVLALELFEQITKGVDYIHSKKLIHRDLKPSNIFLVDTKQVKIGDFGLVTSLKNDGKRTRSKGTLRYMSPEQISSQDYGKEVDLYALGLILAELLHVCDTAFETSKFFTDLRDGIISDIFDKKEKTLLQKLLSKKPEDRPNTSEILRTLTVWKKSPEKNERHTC
T11 sequence (Q9NWZ3 whole entry): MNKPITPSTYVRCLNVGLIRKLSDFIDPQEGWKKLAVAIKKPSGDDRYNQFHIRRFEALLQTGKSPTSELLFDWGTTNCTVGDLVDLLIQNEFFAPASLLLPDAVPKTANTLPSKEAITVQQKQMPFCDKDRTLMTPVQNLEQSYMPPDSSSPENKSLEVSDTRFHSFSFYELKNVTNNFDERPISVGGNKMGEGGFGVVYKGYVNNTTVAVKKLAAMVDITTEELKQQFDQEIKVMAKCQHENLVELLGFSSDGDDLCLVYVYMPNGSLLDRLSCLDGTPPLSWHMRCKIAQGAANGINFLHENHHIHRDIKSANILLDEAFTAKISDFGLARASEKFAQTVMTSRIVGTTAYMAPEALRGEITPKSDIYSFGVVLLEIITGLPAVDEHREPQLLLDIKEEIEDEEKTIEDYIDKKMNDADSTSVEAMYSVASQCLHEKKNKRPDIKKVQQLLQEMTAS
T4 sequence (Q8IU85 whole entry): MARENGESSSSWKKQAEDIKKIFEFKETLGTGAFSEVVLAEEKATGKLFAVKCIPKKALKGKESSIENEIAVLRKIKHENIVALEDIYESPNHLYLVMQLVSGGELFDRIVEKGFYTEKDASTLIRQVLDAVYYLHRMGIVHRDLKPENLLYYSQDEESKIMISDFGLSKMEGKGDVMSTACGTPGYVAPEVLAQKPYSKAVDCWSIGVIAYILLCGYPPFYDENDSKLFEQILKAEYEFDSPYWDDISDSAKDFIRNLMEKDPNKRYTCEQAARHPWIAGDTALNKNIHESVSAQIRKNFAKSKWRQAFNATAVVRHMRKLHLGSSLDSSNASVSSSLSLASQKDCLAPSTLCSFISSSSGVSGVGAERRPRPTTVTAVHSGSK
T3 sequence (Q00535 whole entry): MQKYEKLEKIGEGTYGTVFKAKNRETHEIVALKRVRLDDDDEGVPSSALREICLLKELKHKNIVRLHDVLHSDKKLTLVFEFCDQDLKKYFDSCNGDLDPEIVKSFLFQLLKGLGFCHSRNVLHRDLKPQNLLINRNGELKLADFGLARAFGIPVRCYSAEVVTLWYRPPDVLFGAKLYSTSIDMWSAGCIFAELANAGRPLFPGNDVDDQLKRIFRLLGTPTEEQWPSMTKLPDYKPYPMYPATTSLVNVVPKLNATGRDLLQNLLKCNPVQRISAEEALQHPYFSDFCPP
T8 sequence (Q13555 whole entry): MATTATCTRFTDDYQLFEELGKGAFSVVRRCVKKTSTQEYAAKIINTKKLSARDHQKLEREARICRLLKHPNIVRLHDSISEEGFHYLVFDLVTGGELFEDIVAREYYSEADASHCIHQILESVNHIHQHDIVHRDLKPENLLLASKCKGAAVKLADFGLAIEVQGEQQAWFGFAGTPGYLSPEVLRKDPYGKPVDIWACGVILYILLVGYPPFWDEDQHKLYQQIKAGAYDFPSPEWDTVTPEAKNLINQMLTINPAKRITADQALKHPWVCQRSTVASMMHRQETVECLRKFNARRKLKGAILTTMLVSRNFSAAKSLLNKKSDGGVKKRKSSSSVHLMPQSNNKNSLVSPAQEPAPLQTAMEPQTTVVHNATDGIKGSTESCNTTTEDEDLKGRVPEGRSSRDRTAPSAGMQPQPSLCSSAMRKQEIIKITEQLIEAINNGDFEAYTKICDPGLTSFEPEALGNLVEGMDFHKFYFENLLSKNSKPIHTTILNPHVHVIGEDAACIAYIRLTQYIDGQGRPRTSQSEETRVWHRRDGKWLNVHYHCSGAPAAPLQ
T9 sequence (P54760 16-987): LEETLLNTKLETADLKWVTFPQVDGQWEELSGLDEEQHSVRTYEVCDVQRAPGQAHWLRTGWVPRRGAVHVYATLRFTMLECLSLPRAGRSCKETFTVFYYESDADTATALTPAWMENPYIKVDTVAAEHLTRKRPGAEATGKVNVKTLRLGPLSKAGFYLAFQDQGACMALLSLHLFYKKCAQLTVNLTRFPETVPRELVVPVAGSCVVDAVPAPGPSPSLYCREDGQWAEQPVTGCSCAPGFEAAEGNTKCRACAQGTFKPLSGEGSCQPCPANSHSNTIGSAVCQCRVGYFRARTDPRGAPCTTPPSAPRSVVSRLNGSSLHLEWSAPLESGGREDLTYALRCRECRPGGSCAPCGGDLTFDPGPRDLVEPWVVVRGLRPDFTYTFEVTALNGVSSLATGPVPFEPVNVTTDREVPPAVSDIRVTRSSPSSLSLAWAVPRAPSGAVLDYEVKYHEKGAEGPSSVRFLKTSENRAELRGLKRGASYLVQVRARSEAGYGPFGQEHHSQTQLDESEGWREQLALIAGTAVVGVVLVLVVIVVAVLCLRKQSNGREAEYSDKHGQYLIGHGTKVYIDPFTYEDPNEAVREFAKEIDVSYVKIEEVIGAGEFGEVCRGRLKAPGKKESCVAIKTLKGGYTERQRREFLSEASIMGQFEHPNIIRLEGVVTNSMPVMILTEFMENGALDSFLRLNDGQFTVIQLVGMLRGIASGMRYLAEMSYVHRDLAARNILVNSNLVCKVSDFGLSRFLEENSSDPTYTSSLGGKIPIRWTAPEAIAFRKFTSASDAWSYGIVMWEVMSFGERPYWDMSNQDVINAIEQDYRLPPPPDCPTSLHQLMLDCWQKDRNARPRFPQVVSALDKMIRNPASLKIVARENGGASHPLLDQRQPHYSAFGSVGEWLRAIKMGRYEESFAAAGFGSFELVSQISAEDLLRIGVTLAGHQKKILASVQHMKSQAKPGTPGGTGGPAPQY
T7 sequence (Q96Q40 whole entry): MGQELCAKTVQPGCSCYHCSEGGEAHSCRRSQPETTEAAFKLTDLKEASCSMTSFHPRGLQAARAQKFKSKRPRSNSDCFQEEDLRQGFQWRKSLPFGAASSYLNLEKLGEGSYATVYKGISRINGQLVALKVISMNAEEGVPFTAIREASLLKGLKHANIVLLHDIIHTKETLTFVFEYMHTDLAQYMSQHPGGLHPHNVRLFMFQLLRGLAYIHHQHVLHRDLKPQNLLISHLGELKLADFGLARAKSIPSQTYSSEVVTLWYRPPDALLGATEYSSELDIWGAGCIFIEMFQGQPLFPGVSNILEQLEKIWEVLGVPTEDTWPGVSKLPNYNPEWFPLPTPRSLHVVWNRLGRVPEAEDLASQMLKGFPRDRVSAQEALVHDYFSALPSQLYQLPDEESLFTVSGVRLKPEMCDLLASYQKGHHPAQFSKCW
T1 sequence (O15111 whole entry): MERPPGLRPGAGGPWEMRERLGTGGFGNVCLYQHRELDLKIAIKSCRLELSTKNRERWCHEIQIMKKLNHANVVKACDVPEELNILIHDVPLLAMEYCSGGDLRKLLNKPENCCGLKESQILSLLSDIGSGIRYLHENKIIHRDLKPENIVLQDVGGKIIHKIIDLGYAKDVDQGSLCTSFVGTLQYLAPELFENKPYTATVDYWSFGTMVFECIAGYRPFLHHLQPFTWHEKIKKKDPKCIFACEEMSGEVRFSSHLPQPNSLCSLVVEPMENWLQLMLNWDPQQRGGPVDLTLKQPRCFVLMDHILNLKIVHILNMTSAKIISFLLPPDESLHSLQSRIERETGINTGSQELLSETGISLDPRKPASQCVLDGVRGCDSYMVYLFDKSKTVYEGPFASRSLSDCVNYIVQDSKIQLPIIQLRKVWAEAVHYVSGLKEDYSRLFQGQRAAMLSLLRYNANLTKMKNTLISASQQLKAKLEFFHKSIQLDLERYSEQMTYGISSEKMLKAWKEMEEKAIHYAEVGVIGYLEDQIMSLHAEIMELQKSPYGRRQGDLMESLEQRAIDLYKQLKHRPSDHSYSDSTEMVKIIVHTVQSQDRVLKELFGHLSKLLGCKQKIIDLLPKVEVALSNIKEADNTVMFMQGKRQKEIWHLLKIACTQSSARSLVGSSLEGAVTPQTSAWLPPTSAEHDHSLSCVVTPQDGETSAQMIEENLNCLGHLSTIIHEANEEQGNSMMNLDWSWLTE
T2 sequence (Q9Y6M4 whole entry): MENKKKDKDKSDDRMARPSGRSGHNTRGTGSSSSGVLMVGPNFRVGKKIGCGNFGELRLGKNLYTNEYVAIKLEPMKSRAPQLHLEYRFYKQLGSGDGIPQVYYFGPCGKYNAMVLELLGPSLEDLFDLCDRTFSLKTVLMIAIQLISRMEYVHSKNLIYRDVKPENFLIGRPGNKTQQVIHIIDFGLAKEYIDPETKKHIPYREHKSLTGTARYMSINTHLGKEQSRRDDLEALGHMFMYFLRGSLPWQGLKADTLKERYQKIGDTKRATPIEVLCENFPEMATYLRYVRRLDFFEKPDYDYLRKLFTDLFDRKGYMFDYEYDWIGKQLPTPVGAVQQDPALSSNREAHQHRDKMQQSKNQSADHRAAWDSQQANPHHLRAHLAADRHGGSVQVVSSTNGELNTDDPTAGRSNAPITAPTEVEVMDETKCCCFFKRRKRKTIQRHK

In the case of `Cn1cc(-c2cnc3ccc(NC(=O)Nc4ccc(F)c(C(F)(F)F)c4)cc3n2)cn1` [51-106, 1-(4-Fluoro-3-(trifluoromethyl)phenyl)-3-(3-(1-methyl-1H-pyrazol-4-yl)quinoxalin-6-yl)urea], the inhibition (as a rule, the percentage by which the read-out fell short of the control) at 5 µM is at most 0% at IKKa; 11.5% at CK1g3; at most 0% on CDK5 (Lys1, NRETHEIVALKR); 6.5% against CDK5 (Lys2, DLKPQNLLINR); 30.3% against CaMK1d (Lys1, LFAVKCIPK); at most 0% against CaMK1d (Lys2, DLKPENLLYYSQDEESK). For the same compound, the inhibition at 5 µM on PKD3 (Lys1, DVAIKVIDK) is 27%; on PKD3 (Lys2, NIVHCDLKPENVLLASAEPFPQVK), at most 0%; at MSK1 domain1 it was at most 0%; on PFTAIRE2, at most 0%; on CaMK2g, 7.1%; against EphB4 it was 1.6%. The inhibition at 5 µM on PKR (ATP Loop, IGDFGLVTSLKNDGKR) was at most 0%; against PKR (Lys2, DLKPSNIFLVDTK), 18.7%; at IRAK4 (Lys1, GYVNNTTVAVKK), at most 0%; at IRAK4 (Lys2, DIKSANILLDEAFTAK), 1.2%. The % Inhibition (usually the change of the read-out against control, counted positive when it falls) in the test on ABL, ARG (Activation Loop, LMTGDTYTAHAGAKFPIK) is “NB (NB = No Binding (≤ 0))”; in the test with ABL, ARG (Lys1, YSLTVAVKTLK), 3.5%; with ABL, ARG (Lys1, YSLTVAVKTLKEDTMEVEEFLK), “NB (NB = No Binding (≤ 0))”; in the test with Wnk1, Wnk2, Wnk3, 10.6%; on PKD3 (5 µM, Lys1, DVAIKVIDK), 27.0%; in the test on MER, TYRO3, “NB (NB = No Binding (≤ 0))”. The “% Inhibition” value in the test with ROCK1, ROCK2 (Lys1, VYAMKLLSK) is 11.9%; with ROCK1, ROCK2 (Lys2, DVKPDNMLLDK) it was “NB (NB = No Binding (≤ 0))”.
